molecular target: S. aureus (SAU) GyrB ATPase (Staphylococcus aureus, UniProt P0A0K8); assay: S. aureus GyrB ATPase inhibition, ammonium molybdate/malachite green phosphate detection assay; type: biochemical; details: 10 compound concentrations; 500 μM ATP
Protocol: Compounds were tested for inhibition of GyrB ATPase activity using an ammonium molybdate/malachite green-based phosphate detection assay (Lanzetta, P. A., L. J. Alvarez, P. S. Reinach, and O. A. Candia, 1979, 100: 95-97). Assays were performed in multiwell plates in 100 μl reactions containing: 50 mM Hepes buffer pH 7.5, 75 mM ammonium acetate, 8.0 mM magnesium chloride, 1.0 mM ethylenediaminetetraacetic acid, 5% glycerol, 2 mM 1,4-Dithio-DL-threitol, 400 nM bovine serum albumin, 5 μg/ml sheared salmon sperm DNA, 1.25 nM E. coli GyrA, 1.25 nM S. aureus GyrB, 500 μM ATP, and compound in dimethylsulfoxide. Reactions were quenched with 150 μl of ammonium molybdate/malachite green detection reagent containing 1.2 mM malachite green hydrochloride, 8.5 mM ammonium molybdate tetrahydrate, and 1 M hydrochloric acid. Plates were read in an absorbance plate reader at 650 nm and percent inhibition values were calculated using dimethylsulfoxide (2%)-containing reactions as 0% inhibition and novobiocin-containing (2 μM) reactions as 100% inhibition controls. Compound potency was based on IC50 measurements determined from reactions performed in the presence of 10 different compound concentrations.

S. aureus (SAU) GyrB ATPase, sequence (P0A0K8 whole entry): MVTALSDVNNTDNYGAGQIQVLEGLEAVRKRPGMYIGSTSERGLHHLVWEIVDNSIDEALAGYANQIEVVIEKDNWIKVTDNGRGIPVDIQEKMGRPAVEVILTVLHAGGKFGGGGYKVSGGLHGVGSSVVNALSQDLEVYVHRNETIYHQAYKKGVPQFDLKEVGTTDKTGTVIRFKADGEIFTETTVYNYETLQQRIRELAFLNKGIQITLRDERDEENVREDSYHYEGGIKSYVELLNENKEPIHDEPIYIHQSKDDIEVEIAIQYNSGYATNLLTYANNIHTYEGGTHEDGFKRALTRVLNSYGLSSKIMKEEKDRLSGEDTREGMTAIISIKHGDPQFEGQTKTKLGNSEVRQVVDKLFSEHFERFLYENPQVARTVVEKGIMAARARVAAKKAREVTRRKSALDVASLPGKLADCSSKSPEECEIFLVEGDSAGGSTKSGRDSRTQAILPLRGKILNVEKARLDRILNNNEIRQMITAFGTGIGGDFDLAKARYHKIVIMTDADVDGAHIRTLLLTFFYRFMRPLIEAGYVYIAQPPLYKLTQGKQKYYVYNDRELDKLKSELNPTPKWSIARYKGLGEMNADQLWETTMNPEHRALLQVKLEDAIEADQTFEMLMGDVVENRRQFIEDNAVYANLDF
S. aureus (SAU) GyrB ATPase, sequence (P0AES4 whole entry, further chain): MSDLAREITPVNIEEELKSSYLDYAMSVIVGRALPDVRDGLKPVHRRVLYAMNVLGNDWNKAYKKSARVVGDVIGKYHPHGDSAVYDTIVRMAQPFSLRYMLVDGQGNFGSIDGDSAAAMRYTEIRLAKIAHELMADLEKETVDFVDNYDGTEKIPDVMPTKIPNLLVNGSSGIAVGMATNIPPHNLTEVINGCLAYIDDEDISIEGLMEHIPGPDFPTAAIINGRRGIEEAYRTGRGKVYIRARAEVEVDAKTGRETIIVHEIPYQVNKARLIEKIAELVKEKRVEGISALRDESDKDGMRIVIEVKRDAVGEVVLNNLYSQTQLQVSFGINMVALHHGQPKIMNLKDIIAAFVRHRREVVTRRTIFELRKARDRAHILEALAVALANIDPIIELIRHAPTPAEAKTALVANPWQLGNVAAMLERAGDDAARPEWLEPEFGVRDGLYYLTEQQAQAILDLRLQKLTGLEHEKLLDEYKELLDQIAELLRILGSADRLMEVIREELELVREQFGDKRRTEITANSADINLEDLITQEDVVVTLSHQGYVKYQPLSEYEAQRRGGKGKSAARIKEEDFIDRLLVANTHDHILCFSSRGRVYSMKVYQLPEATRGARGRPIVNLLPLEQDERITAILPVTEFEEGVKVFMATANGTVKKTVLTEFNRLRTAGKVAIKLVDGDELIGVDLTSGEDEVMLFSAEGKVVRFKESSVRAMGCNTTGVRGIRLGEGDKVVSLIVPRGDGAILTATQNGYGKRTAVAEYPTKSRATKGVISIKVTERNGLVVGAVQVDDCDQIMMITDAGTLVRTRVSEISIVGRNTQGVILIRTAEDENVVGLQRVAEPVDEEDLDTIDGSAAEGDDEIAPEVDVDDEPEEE

SMILES | IC50 [µM]
CCCCNC(=O)c1nc(-c2ccc(NC(=O)NCC)nc2)sc1C(=O)NOC [Example 36, N^4-Butyl-2-(6-{[(ethylamino)carbonyl]amino}pyridin-3-yl)-N^5-methoxy-1,3-thiazole-4,5-dicarboxamide] | 0.0168

same assay, conditions: read-out: S. aureus (SAU) GyrB ATPase % Inhibition, compound concentration 12.5 μM

SMILES | inhibition at 12.5 µM [%]
CCNC(=O)Nc1cc(-c2ccc(C(=O)O)cc2)ccn1 [Example 144, 4-(2-{[(ethylamino)carbonyl]amino}pyridin-4-yl)benzoic acid] | 38.6
CCNC(=O)Nc1cc(-c2ccccc2)c(-c2cncc(C(=O)OCC)c2)cn1 [Example 77, Ethyl 6′-{[(ethylamino)carbonyl]amino}-4′-phenyl-3,3′-bipyridine-5-carboxylate] | 101
CCNC(=O)Nc1cc(-c2ccc(F)nc2)c(-c2cncc(C(N)=O)c2)cn1 [Example 128, 6′-{[(Ethylamino)carbonyl]amino}-6″-fluoro-3,3′:4′,3″-terpyridine-5-carboxamide] | 91.5
CCNC(=O)Nc1cc(-c2nc(C(F)(F)F)cs2)c(-c2ncc(C(=O)O)s2)cn1 [Example 102, 2-{6-{[(Ethylamino)carbonyl]amino}-4-[4-(trifluoromethyl)-1,3-thiazol-2-yl]pyridin-3-yl}-1,3-thiazole-5-carboxylic acid] | 98.2
CCC(C)NC(=O)Nc1cc(-c2nc(C(F)(F)F)cs2)c(-c2cncc(C(=O)O)c2)cn1 (centres unmarked) [Example 106, 6′-{[(Sec-butylamino)carbonyl]amino}-4′-[4-(trifluoromethyl)-1,3-thiazol-2-yl]-3,3′-bipyridine-5-carboxylic acid] | 93.1
CCCCn1cc(C(=O)O)c(=O)c2cc(-c3ccc(NC(=O)NCC)nc3)ccc21 [Example 47, 1-Butyl-6-(6-(3-ethylureido)pyridin-3-yl)-4-oxo-1,4-dihydroquinoline-3-carboxylic acid] | 91.7
CCNC(=O)Nc1cc(-c2cccnc2)c(-c2cncc(C(=O)OCC)c2)cn1 [Example 85, Ethyl 6′-{[(ethylamino)carbonyl]amino}-3,3′:4′,3″-terpyridine-5-carboxylate] | 94.9
CCNC(=O)Nc1ccc(-c2nc(-c3ncnn3C)c(C(N)=O)s2)cn1 [Example 157, 2-(6-{[(ethylamino)carbonyl]amino}pyridin-3-yl)-4-(1-methyl-1H-1,2,4-triazol-5-yl)-1,3-thiazole-5-carboxamide] | 101
CCNC(=O)Nc1cc(-c2cncc(F)c2)c(-c2cncc(C(=O)O)c2)cn1 [Example 69, 6′-{[(Ethylamino)carbonyl]amino}-5″-fluoro-3,3′:4′,3″-terpyridine-5-carboxylic acid] | 88.5
CCNC(=O)Nc1ccc(-c2nc(C(=O)NCCOC)c(C(N)=O)s2)cn1 [Example 116, 2-(6-{[(Ethylamino)carbonyl]amino}pyridin-3-yl)-N^4-(2-methoxyethyl)-1,3-thiazole-4,5-dicarboxamide] | 98.7
CCNC(=O)Nc1ccc(-c2nc(C(=O)O)cs2)cn1 [Example 18, 2-(6-{[(Ethylamino)carbonyl]amino}pyridin-3-yl)-1,3-thiazole-4-carboxylic acid] | 101
CCNC(=O)Nc1cc(-c2nc(C(F)(F)F)cs2)c(-c2cncc(C(=O)OCC)c2)cn1 [Example 83, Ethyl 6′-{[(ethylamino)carbonyl]amino}-4′-[4-(trifluoromethyl)-1,3-thiazol-2-yl]-3,3′-bipyridine-5-carboxylate] | 86.9
CCNC(=O)Nc1cc(-c2ccccc2)c(-c2cncc(C(=O)O)c2)cn1 [Example 95, 6′-{[(Ethylamino)carbonyl]amino}-4′-phenyl-3,3′-bipyridine-5-carboxylic acid] | 100
CCNC(=O)Nc1ccc(-c2nc(C(=O)NC(C)(C)C)c(C(=O)O)s2)cn1 [Example 94, 4-[(tert-Butylamino)carbonyl]-2-(6-{[(ethylamino)carbonyl]amino}pyridin-3-yl)-1,3-thiazole-5-carboxylic acid] | 98.9
CCNC(=O)Nc1ccc(-c2ccc3c(c2)c(=O)c(C(=O)O)cn3CCOC)cn1 [Example 46, 6-(6-(3-Ethylureido)pyridin-3-yl)-1-(2-methoxyethyl)-4-oxo-1,4-dihydroquinoline-3-carboxylic acid] | 83.4
CCNC(=O)Nc1ccc(-c2nc(C(=O)NCCOC)c(C(=O)O)s2)cn1 [Example 91, 2-(6-{[(Ethylamino)carbonyl]amino}pyridin-3-yl)-4-{[(2-methoxyethyl)amino]carbonyl}-1,3-thiazole-5-carboxylic acid] | 101
CCCCNC(=O)c1nc(-c2cnc(NC(=O)NCC)cc2-c2ccccc2)sc1C(=O)O [Example 98, 4-[(Butylamino)carbonyl]-2-(6-{[(ethylamino)carbonyl]amino}-4-phenylpyridin-3-yl)-1,3-thiazole-5-carboxylic acid] | 99.3

SMILES | inhibition at 12.5 µM [%]
CCNC(=O)Nc1ccc(-c2ccc(C(=O)O)cc2)cn1 [Example 23, 4-(6-{[(Ethylamino)carbonyl]amino}pyridin-3-yl)benzoic acid] | 92.5
CCNC(=O)Nc1cc(-c2nc(CC)cs2)c(-c2cncc(C(=O)NC)c2)cn1 [Example 107, 6′-{[(Ethylamino)carbonyl]amino}-4′-(4-ethyl-1,3-thiazol-2-yl)-N-methyl-3,3′-bipyridine-5-carboxamide] | 84
CCNC(=O)Nc1ccc(-c2nc(C(=O)NC(C)(C)C)c(C(=O)N(C)C)s2)cn1 [Example 110, N^4-(tert-Butyl)-2-(6-{[(ethylamino)carbonyl]amino}pyridin-3-yl)-N^5,N^5-dimethyl-1,3-thiazole-4,5-dicarboxamide] | 101
CCNC(=O)Nc1ccc(-c2ccc3nc(C(=O)OC)cn3c2)cn1 [Example 12, Methyl 6-(6-{[(ethylamino)carbonyl]amino}pyridin-3-yl)imidazo[1,2-a]pyridine-2-carboxylate] | 92.6
CCCCNC(=O)c1nc(-c2ccc(NC(=O)NCC)nc2)sc1C(=O)NOC [Example 36, N^4-Butyl-2-(6-{[(ethylamino)carbonyl]amino}pyridin-3-yl)-N^5-methoxy-1,3-thiazole-4,5-dicarboxamide] | 4.84
CCNC(=O)Nc1ccc(-c2nc(-c3nccn3C)c(C(=O)N(C)C)s2)cn1 [Example 112, 2-(6-{[(Ethylamino)carbonyl]amino}pyridin-3-yl)-N,N-dimethyl-4-(1-methyl-1H-imidazol-2-yl)-1,3-thiazole-5-carboxamide] | 99.9
CCNC(=O)Nc1cc(-c2ccccc2)c(-c2cncc(C(N)=O)c2)cn1 [Example 114, 6′-{[(Ethylamino)carbonyl]amino}-4′-phenyl-3,3′-bipyridine-5-carboxamide] | 105
CCNC(=O)Nc1ccc(-c2nc(C(=O)N[C@@H](C)COC)c(C(=O)O)s2)cn1 [Example 92, 2-(6-{[(ethylamino)carbonyl]amino}pyridin-3-yl)-4-({[(1S)-2-methoxy-1-methylethyl]amino}carbonyl)-1,3-thiazole-5-carboxylic acid] | 101
CCNC(=O)Nc1cccc(-c2cccc(C(=O)N(C)C)c2)n1 [Example 156, 3-(6-{[(ethylamino)carbonyl]amino}pyridin-2-yl)-N,N-dimethylbenzamide] | 43
CCNC(=O)Nc1ccc(-c2nc(C(=O)NC)c(C(=O)OC(C)C)s2)cn1 [Example 8, Isopropyl 2-(6-{[(ethylamino)carbonyl]amino}pyridin-3-yl)-4-[(methylamino)carbonyl]-1,3-thiazole-5-carboxylate] | 81.5
CCNC(=O)Nc1cccc(-c2ccc(C(=O)O)cc2)n1 [Example 32, 4-(6-{[(Ethylamino)carbonyl]amino}pyridin-2-yl)benzoic acid] | 2.66
CCNC(=O)Nc1cccc(-c2cccc(C(N)=O)c2)n1 [Example 151, 3-(6-{[(ethylamino)carbonyl]amino}pyridin-2-yl)benzamide] | 97.7
CCNC(=O)Nc1ccc(-c2nc(C(N)=O)c(C(N)=O)s2)cn1 [Example 152, 2-(6-{[(ethylamino)carbonyl]amino}pyridin-3-yl)-1,3-thiazole-4,5-dicarboxamide] | 69.4
CCNC(=O)Nc1ccc(-c2nc(C(=O)NC(C)(C)C)c(C(=O)OCC)s2)cn1 [Example 76, Ethyl 4-[(tert-butylamino)carbonyl]-2-(6-{[(ethylamino)carbonyl]amino}pyridin-3-yl)-1,3-thiazole-5-carboxylate] | 88.2
CCNC(=O)Nc1ccc(-c2nc(C(=O)NC3CC3)c(C(N)=O)s2)cn1 [Example 38, N^4-Cyclopropyl-2-(6-{[(ethylamino)carbonyl]amino}pyridin-3-yl)-1,3-thiazole-4,5-dicarboxamide] | 91.8
CCNC(=O)Nc1cc(-c2nc(C(F)(F)F)cs2)c(-c2cncc(C(=O)NC3CC3)c2)cn1 [Example 126, N-Cyclopropyl-6′-{[(ethylamino)carbonyl]amino}-4′-[4-(trifluoromethyl)-1,3-thiazol-2-yl]-3,3′-bipyridine-5-carboxamide] | 96.2
CCNC(=O)Nc1ccc(-c2nc(C(=O)NC3CC3)c(C(=O)OCC)s2)cn1 [Example 9, Ethyl 4-[(cyclopropylamino)carbonyl]-2-(6-{[(ethylamino)carbonyl]amino}pyridin-3-yl)-1,3-thiazole-5-carboxylate] | 93.5

From patent publication US7674801B2 (AstraZeneca AB, priority 2006, dated 2010)
